Laboratory results reported in patent US4996237A, “Combretastatin A-4” (Arizona Board of Regents, priority 1988, dated 1991).
Entries after “also recorded” stand apart in the source; their conditions may differ.

Assays:
[1] = tested on: tubulin; assay: inhibition of microtubule assembly / tubulin polymerization; assay type: biochemical
[2] = tested on: tubulin; assay: inhibition of colchicine binding to tubulin; details: competes with combretastatin A-1
[3] = tested on: P388 lymphocytic leukemia cell line; assay: growth inhibition of murine P388 lymphocytic leukemia cell line (PS system); assay type: cell-based
[4] = tested on: L1210 lymphocytic leukemia cell line; assay: growth inhibition of murine L1210 lymphocytic leukemia cell line; assay type: cell-based
[5] = tested on: VoLo human colon cancer cell line; assay: growth inhibition of human colon cancer cell line VoLo; assay type: cell-based; details: read-out: ED50, VoLo
[6] = tested on: DLD-1 human colon cancer cell line; assay: growth inhibition of human colon cancer cell line DLD-1; assay type: cell-based; details: read-out: ED50, DLD-1
[7] = tested on: HCT-15 human colon cancer cell line; assay: growth inhibition of human colon cancer cell line HCT-15; assay type: cell-based; details: read-out: ED50, HCT-15
[8] = antimitotic activity; details: among the Combretum caffrum constituents
[9] = tested on: tubulin; details: previously isolated from Combretum caffrum; cited from earlier work

COc1ccc(/C=C\c2cc(OC)c(OC)c(OC)c2)cc1O [Combretastatin A-4]
IC50 [1]: […] | inhibition of tubulin polymerization (in words) [1]: […] | inhibition of microtubule assembly, comparison with reference agents (in words) ([1]; compared with podophyllotoxin, combretastatin A-1, colchicine, steganacin): […] | inhibition of colchicine binding to tubulin (in words) [2]: […] | activity against P388 cell line (in words) [3]: significantly active | IC50 ([3]; Mus musculus, P388, read-out: ED50, growth of P388 cell line): < 0.003 µg/mL | activity against L1210 cell line (in words) [4]: significantly active | IC50 ([4]; Mus musculus, L1210, read-out: ED50, growth of L1210 cell line): < 0.003 µg/mL | IC50 [5]: […] | IC50 [6]: […] | IC50 [7]: […] | antimitotic activity (in words) [8]: strongest antimitotic agent

COc1ccc(/C=C\c2cc(OC)c(OC)c(OC)c2)c(O)c1O [combretastatin A-1]
inhibition of microtubule assembly (in words), earlier isolated substances [9]: potent inhibitors of microtubule assembly

COc1ccc(/C=C\c2cc(OC)c3c(c2)OCO3)cc1O [combretastatin A-2]
inhibition of microtubule assembly (in words), earlier isolated substances [9]: potent inhibitors of microtubule assembly

COc1ccc(/C=C/c2cc(OC)c(OC)c(OC)c2)cc1O [trans-isomer]
activity against P388 cell line (in words) [3]: significantly active | activity against L1210 cell line (in words) [4]: significantly active
